The record followed here is ChEMBL document CHEMBL3044907, “Sensitivity of Fusarium verticillioides isolates from rice to a novel cyanoacrylate fungicide” (Crop Prot, 2012).

SMILES strings stand for the structures.

Data set [1] concerns Fusarium verticillioides. The data set can be described thus: Fungicidal activity against Fusarium verticilliodes isolate YZ05 in rice seeds harvested from bakane diseased plants assessed as number of seedlings abnormally elongated or exhibiting symptoms of damping-off at 12.5 ug/ml at 30 degC incubated for 72 hr measured after 3 days under greenhouse trials (reference value: 33.3%). Format: functional.

Another data set has as its system Oryza sativa. Briefly: Effect on emergence of healthy Oryza sativa (rice) seedlings measured after seeds germinated. Format: ADME, organism-based. Conditions: in vivo.
The test system of data set [2] is Fusarium verticillioides. The data set can be described thus: Fungicidal activity against Fusarium verticilliodes isolate JS07 in rice seeds harvested from bakane diseased plants assessed as number of seedlings abnormally elongated or exhibiting symptoms of damping-off at 25 ug/ml at 30 degC incubated for 72 hr measured after 3 days under greenhouse trials (reference value: 33.8%). The class given is functional.

For data set [3], the system named is Fusarium verticillioides. The data set can be described thus: Fungicidal activity against Fusarium verticilliodes isolate YZ26 in rice seeds harvested from bakane diseased plants assessed as number of seedlings abnormally elongated or exhibiting symptoms of damping-off at 25 ug/ml at 30 degC incubated for 72 hr measured after 3 days under greenhouse trials (reference value: 49.3%). The class given is functional.

Data set [4] deals with Fusarium verticillioides. Briefly: Fungicidal activity against Fusarium verticilliodes isolate JS01 in rice seeds harvested from bakane diseased plants assessed as number of seedlings abnormally elongated or exhibiting symptoms of damping-off at 12.5 ug/ml at 30 degC incubated for 72 hr measured after 3 days under greenhouse trials (reference value: 32.5%). The class given is functional.

Data set [5] deals with Fusarium verticillioides. The data set can be described thus: Fungicidal activity against Fusarium verticilliodes isolate YZ22 in rice seeds harvested from bakane diseased plants assessed as number of seedlings abnormally elongated or exhibiting symptoms of damping-off at 6.25 ug/ml at 30 degC incubated for 72 hr measured after 3 days under greenhouse trials (reference value: 22.5%). Format: functional.

For data set [6], the system named is Fusarium verticillioides. Briefly: Fungicidal activity against Fusarium verticilliodes isolate YZ13 in rice seeds harvested from bakane diseased plants assessed as number of seedlings abnormally elongated or exhibiting symptoms of damping-off at 8.33 ug/ml at 30 degC incubated for 72 hr measured after 3 days under greenhouse trials (reference value: 26.8%). Format: functional.

The test system of data set [7] is Fusarium verticillioides. The data set can be described thus: Fungicidal activity against Fusarium verticilliodes isolate JS06 in rice seeds harvested from bakane diseased plants assessed as number of seedlings abnormally elongated or exhibiting symptoms of damping-off at 25 ug/ml at 30 degC incubated for 72 hr measured after 3 days under greenhouse trials (reference value: 25.2%). Format: functional.

Data set [8] relates to Fusarium verticillioides. The data set can be described thus: Fungicidal activity against Fusarium verticilliodes isolate N05 in rice seeds harvested from bakane diseased plants assessed as number of seedlings abnormally elongated or exhibiting symptoms of damping-off at 25 ug/ml at 30 degC incubated for 72 hr measured after 3 days under greenhouse trials (reference value: 6.2%). The class given is functional.

Data set [9] has as its system Fusarium verticillioides. Briefly: Fungicidal activity against Fusarium verticilliodes isolate YZ03 in rice seeds harvested from bakane diseased plants assessed as number of seedlings abnormally elongated or exhibiting symptoms of damping-off at 12.5 ug/ml at 30 degC incubated for 72 hr measured after 3 days under greenhouse trials (reference value: 21.3%). Format: functional.

Data set [10] relates to Fusarium verticillioides. The data set can be described thus: Fungicidal activity against Fusarium verticilliodes isolate JS02 in rice seeds harvested from bakane diseased plants assessed as number of seedlings abnormally elongated or exhibiting symptoms of damping-off at 6.25 ug/ml at 30 degC incubated for 72 hr measured after 3 days under greenhouse trials (reference value: 24.9%). The class given is functional.

In data set [11] the test system is Fusarium verticillioides. Briefly: Fungicidal activity against Fusarium verticilliodes isolate YZ13 in rice seeds harvested from bakane diseased plants assessed as number of seedlings abnormally elongated or exhibiting symptoms of damping-off at 12.5 ug/ml at 30 degC incubated for 72 hr measured after 3 days under greenhouse trials (reference value: 26.8%). Format: functional.

Data set [12] relates to Fusarium verticillioides. Briefly: Fungicidal activity against Fusarium verticilliodes isolate YZ04 in rice seeds harvested from bakane diseased plants assessed as number of seedlings abnormally elongated or exhibiting symptoms of damping-off at 6.25 ug/ml at 30 degC incubated for 72 hr measured after 3 days under greenhouse trials (reference value: 44.2%). The class given is functional.

Data set [13] has as its system Fusarium verticillioides. Briefly: Fungicidal activity against Fusarium verticilliodes isolate YZ12 in rice seeds harvested from bakane diseased plants assessed as number of seedlings abnormally elongated or exhibiting symptoms of damping-off at 25 ug/ml at 30 degC incubated for 72 hr measured after 3 days under greenhouse trials (reference value: 45.8%). Format: functional.

Data set [14] has as its system Fusarium verticillioides. The data set can be described thus: Fungicidal activity against Fusarium verticilliodes isolate JS08 in rice seeds harvested from bakane diseased plants assessed as number of seedlings abnormally elongated or exhibiting symptoms of damping-off at 6.25 ug/ml at 30 degC incubated for 72 hr measured after 3 days under greenhouse trials (reference value: 13.0%). Format: functional.

For data set [15], the system named is Fusarium verticillioides. The data set can be described thus: Fungicidal activity against Fusarium verticilliodes isolate JS09 in rice seeds harvested from bakane diseased plants assessed as number of seedlings abnormally elongated or exhibiting symptoms of damping-off at 12.5 ug/ml at 30 degC incubated for 72 hr measured after 3 days under greenhouse trials (reference value: 32.6%). Format: functional.

Data set [16] concerns Fusarium verticillioides. The data set can be described thus: Fungicidal activity against Fusarium verticilliodes isolate YZ26 in rice seeds harvested from bakane diseased plants assessed as number of seedlings abnormally elongated or exhibiting symptoms of damping-off at 12.5 ug/ml at 30 degC incubated for 72 hr measured after 3 days under greenhouse trials (reference value: 49.3%). Format: functional.

Data set [17] has as its system Fusarium verticillioides. The data set can be described thus: Fungicidal activity against Fusarium verticilliodes isolate N03 in rice seeds harvested from bakane diseased plants assessed as number of seedlings abnormally elongated or exhibiting symptoms of damping-off at 25 ug/ml at 30 degC incubated for 72 hr measured after 3 days under greenhouse trials (reference value: 36.1%). Format: functional.

In data set [18] the test system is Fusarium verticillioides. The data set can be described thus: Fungicidal activity against Fusarium verticilliodes isolate N02 in rice seeds harvested from bakane diseased plants assessed as number of seedlings abnormally elongated or exhibiting symptoms of damping-off at 8.33 ug/ml at 30 degC incubated for 72 hr measured after 3 days under greenhouse trials (reference value: 41.2%). The class given is functional.

Data set [19] deals with Fusarium verticillioides. Briefly: Fungicidal activity against Fusarium verticilliodes isolate JS05 in rice seeds harvested from bakane diseased plants assessed as number of seedlings abnormally elongated or exhibiting symptoms of damping-off at 6.25 ug/ml at 30 degC incubated for 72 hr measured after 3 days under greenhouse trials (reference value: 36.4%). Format: functional.

Data set [20] has as its system Fusarium verticillioides. Briefly: Fungicidal activity against Fusarium verticilliodes isolate YZ08 in rice seeds harvested from bakane diseased plants assessed as number of seedlings abnormally elongated or exhibiting symptoms of damping-off at 12.5 ug/ml at 30 degC incubated for 72 hr measured after 3 days under greenhouse trials (reference value: 19.8%). The class given is functional.

Data set [21] has as its system Fusarium verticillioides. Briefly: Fungicidal activity against Fusarium verticilliodes isolate N04 in rice seeds harvested from bakane diseased plants assessed as number of seedlings abnormally elongated or exhibiting symptoms of damping-off at 8.33 ug/ml at 30 degC incubated for 72 hr measured after 3 days under greenhouse trials (reference value: 14.5%). Format: functional.

Data set [22] deals with Fusarium verticillioides. Briefly: Fungicidal activity against Fusarium verticilliodes isolate YZ11 in rice seeds harvested from bakane diseased plants assessed as number of seedlings abnormally elongated or exhibiting symptoms of damping-off at 25 ug/ml at 30 degC incubated for 72 hr measured after 3 days under greenhouse trials (reference value: 33.7%). The class given is functional.

For data set [23], the system named is Fusarium verticillioides. Briefly: Fungicidal activity against Fusarium verticilliodes isolate JS03 in rice seeds harvested from bakane diseased plants assessed as number of seedlings abnormally elongated or exhibiting symptoms of damping-off at 8.33 ug/ml at 30 degC incubated for 72 hr measured after 3 days under greenhouse trials (reference value: 15.8%). The class given is functional.

Take `CCOC(=O)/C(C#N)=C(/N)c1ccccc1`: the Activity with Fusarium verticillioides [1] was 0%; in the data set with Oryza sativa, “Non-toxic”; in the data set with Fusarium verticillioides [2] it was 0%; in the data set on Fusarium verticillioides [3], 0.2%; with Fusarium verticillioides [4] it was 0%; in the data set with Fusarium verticillioides [5], 2.7%. The Activity was 0% in the data set with Fusarium verticillioides [6]; 0% in the data set with Fusarium verticillioides [7]; 0% in the data set on Fusarium verticillioides [8]; 0% with Fusarium verticillioides [9]; 2% in the data set with Fusarium verticillioides [10]; 0% in the data set with Fusarium verticillioides [11]. Besides, the Activity is on record as 1.3% in the data set with Fusarium verticillioides [12]; 0% in the data set on Fusarium verticillioides [13]; 3.6% in the data set with Fusarium verticillioides [14]; 0% with Fusarium verticillioides [15]; 0% with Fusarium verticillioides [16]; 0% in the data set on Fusarium verticillioides [17]. Besides, the Activity in the data set on Fusarium verticillioides [18] was determined as 0%; in the data set with Fusarium verticillioides [19], 2.8%; in the data set with Fusarium verticillioides [20], 0%; with Fusarium verticillioides [21] it was 0%; in the data set on Fusarium verticillioides [22], 0%; in the data set with Fusarium verticillioides [23], 0%.
